# Results from US20060069132A1, “Azolecarboxamide herbicides” (priority 2004, published 2006).
# Assays:
# wild oat = test: Test B postemergence herbicide test; type: in vivo, Avena fatua
# In short: (§1)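 Plants grow to 1- to 4-leaf stage (2–18 cm) for postemergence spraying, or to 2-leaf stage for the paddy test. Formulated compound is applied. Greenhouse holding lasts 13–15 days. Response is scored visually relative to controls, 0 no effect to 100 complete control; a dash means no result.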
# morningglory = test: Test B pre-/postemergence herbicide test; type: in vivo, Ipomoea coccinea
# In short: (§2)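 Herbicidal effect was judged by eye on a 0–100 scale after plants stood 13 to 15 days in the greenhouse following pre- or postemergence treatment with surfactant-containing formulations.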
# velvetleaf = test: Test B pre-/postemergence herbicide test; type: in vivo, Abutilon theophrasti
# In short: as §2
# lambsquarters = test: Test B pre-/postemergence herbicide test; type: in vivo, Chenopodium album
# In short: as §2
# cocklebur = test: Test B pre-/postemergence herbicide test; type: in vivo, Xanthium strumarium
# In short: as §2
# wheat = test: Test B postemergence herbicide test; type: in vivo, Triticum aestivum; design: key to Wheat plant response rating: 0 = no effect, 100 = complete control
# In short: as §1
# barnyardgrass [1] = test: Test B pre-/postemergence herbicide test; type: in vivo, Echinochloa crus-galli
# In short: as §2
# large crabgrass = test: Test B pre-/postemergence herbicide test; type: in vivo, Digitaria sanguinalis
# In short: as §2
# pigweed = test: Test B pre-/postemergence herbicide test; type: in vivo, Amaranthus retroflexus
# In short: as §2
# ducksalad = test: Test B flooded paddy test; type: in vivo, Heteranthera limosa; settings: 1000 g ai/ha, scale 0 to 100 (0 no effect, 100 complete control)
# In short: (§3)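 Treated at 2-leaf (paddy) or 1–4-leaf, 2–18 cm (postemergence); greenhouse 13–15 d; visual score vs control, 0 none to 100 complete control; dash = not tested.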
# rice = test: Test B flooded paddy test; type: in vivo, Oryza sativa; settings: 1000 g ai/ha, scale 0 to 100 (0 no effect, 100 complete control)
# In short: as §3
# [2] = tested on: small flower umbrella sedge; test: Test B flooded paddy test; type: in vivo, Cyperus difformis; settings: 1000 g ai/ha, scale 0 to 100 (0 no effect, 100 complete control)
# In short: as §3
# corn = test: Test B pre-/postemergence herbicide test; type: in vivo, Zea mays
# In short: as §2
# blackgrass = test: Test B postemergence herbicide test; type: in vivo, Alopecurus myosuroides
# In short: as §3
# barnyardgrass [3] = test: Test B flooded paddy test; type: in vivo, Echinochloa crus-galli; settings: 1000 g ai/ha, scale 0 to 100 (0 no effect, 100 complete control)
# In short: as §3
# Surinam grass = test: Test B pre-/postemergence herbicide test; type: in vivo, Urochloa decumbens
# In short: as §2
# [4] = 125 g ai/ha; visual rating, scale 0 (no effect) to 100 (complete control); postemergence
# [5] = postemergence, 500 g ai/ha; scale 0 to 100, 0 is no effect, 100 is complete control
# [6] = 125 g ai/ha; 0 = no effect, 100 = complete control; preemergence
# [7] = 500 g ai/ha; visual rating, 0 = no effect, 100 = complete control; preemergence
# [8] = postemergence, 125 g ai/ha; visual rating, scale 0 (no effect) to 100 (complete control)
# [9] = postemergence, 500 g ai/ha; visual rating, scale 0 (no effect) to 100 (complete control)
structure (smiles),measurement,setting,value
CCOC(=O)c1cccc(NC(=O)c2cc(C(C)(C)C)nn2C)n1 [Compound 313],"Oat, Wild plant response rating",wild oat; [4],20
same,"Oat, Wild plant response rating",wild oat; [5],30
same,Morningglory plant response rating (0 to 100 scale),morningglory; [6],10
same,Morningglory plant response rating,morningglory; [4],0
same,"Plant response rating, Morningglory",morningglory; [7],40
same,Morningglory plant response rating,morningglory; [5],80
same,Velvetleaf plant response rating,velvetleaf; [4],60
same,"Plant response rating, Velvetleaf",velvetleaf; [7],100
same,Velvetleaf plant response rating,velvetleaf; [5],70
same,Lambsquarters plant response rating (0 to 100 scale),lambsquarters; [6],100
same,Lambsquarters plant response rating,lambsquarters; [4],60
same,"Plant response rating, Lambsquarters",lambsquarters; [7],100
same,Lambsquarters plant response rating,lambsquarters; [5],90
same,Cocklebur plant response rating (0 to 100 scale),cocklebur; [6],0
same,Cocklebur plant response rating,cocklebur; [4],0
same,"Plant response rating, Cocklebur",cocklebur; [7],10
same,Cocklebur plant response rating,cocklebur; [5],90
same,Wheat plant response rating,wheat; [4],0
same,Wheat plant response rating,wheat; [5],10
same,Barnyardgrass plant response rating (0 to 100 scale),barnyardgrass [1]; [6],80
same,Barnyardgrass plant response rating,barnyardgrass [1]; [4],30
same,"Plant response rating, Barnyardgrass",barnyardgrass [1]; [7],90
same,Barnyardgrass plant response rating,barnyardgrass [1]; [5],50
same,"Crabgrass, Large plant response rating (0 to 100 scale)",large crabgrass; [6],30
same,"Crabgrass, Large plant response rating",large crabgrass; [4],10
same,"Plant response rating, Crabgrass, Large",large crabgrass; [7],90
same,"Crabgrass, Large plant response rating",large crabgrass; [5],20
same,Pigweed plant response rating (0 to 100 scale),pigweed; [6],100
same,Pigweed plant response rating,pigweed; [4],60
same,"Plant response rating, Pigweed",pigweed; [7],100
same,Pigweed plant response rating,pigweed; [5],70
same,Ducksalad plant response rating,ducksalad,80
same,Rice plant response rating,rice,80
same,"Sedge, Umbrella plant response rating",[2],80
same,Corn plant response rating (0 to 100 scale),corn; [6],10
same,Corn plant response rating,corn; [4],10
same,"Plant response rating, Corn",corn; [7],30
same,Corn plant response rating,corn; [5],20
same,Blackgrass plant response rating,blackgrass; [4],0
same,Blackgrass plant response rating,blackgrass; [5],10
same,Barnyardgrass plant response rating,barnyardgrass [3],70
same,Surinam Grass plant response rating (0 to 100 scale),Surinam grass; [6],30
same,Surinam Grass plant response rating,Surinam grass; [4],10
same,"Plant response rating, Surinam Grass",Surinam grass; [7],80
same,Surinam Grass plant response rating,Surinam grass; [5],20
CCn1nc(C(C)(C)C)cc1C(=S)Nc1cc(C(=S)N(C)C)ccc1F [Compound 305],"Oat, Wild plant response rating",wild oat; [4],10
same,"Oat, Wild plant response rating",wild oat; [5],30
same,Morningglory plant response rating (0 to 100 scale),morningglory; [6],0
same,Morningglory plant response rating,morningglory; [4],0
same,"Plant response rating, Morningglory",morningglory; [7],0
same,Morningglory plant response rating,morningglory; [5],0
same,Velvetleaf plant response rating,velvetleaf; [4],20
same,"Plant response rating, Velvetleaf",velvetleaf; [7],100
same,Velvetleaf plant response rating,velvetleaf; [5],20
same,Lambsquarters plant response rating (0 to 100 scale),lambsquarters; [6],100
same,Lambsquarters plant response rating,lambsquarters; [4],50
same,"Plant response rating, Lambsquarters",lambsquarters; [7],100
same,Lambsquarters plant response rating,lambsquarters; [5],80
same,Cocklebur plant response rating (0 to 100 scale),cocklebur; [6],50
same,Cocklebur plant response rating,cocklebur; [4],10
same,"Plant response rating, Cocklebur",cocklebur; [7],70
same,Cocklebur plant response rating,cocklebur; [5],10
same,Wheat plant response rating,wheat; [4],0
same,Wheat plant response rating,wheat; [5],10
same,Barnyardgrass plant response rating (0 to 100 scale),barnyardgrass [1]; [6],80
same,Barnyardgrass plant response rating,barnyardgrass [1]; [4],0
same,"Plant response rating, Barnyardgrass",barnyardgrass [1]; [7],90
same,Barnyardgrass plant response rating,barnyardgrass [1]; [5],0
same,"Crabgrass, Large plant response rating (0 to 100 scale)",large crabgrass; [6],90
same,"Crabgrass, Large plant response rating",large crabgrass; [4],0
same,"Plant response rating, Crabgrass, Large",large crabgrass; [7],100
same,"Crabgrass, Large plant response rating",large crabgrass; [5],0
same,Pigweed plant response rating (0 to 100 scale),pigweed; [6],100
same,Pigweed plant response rating,pigweed; [4],0
same,"Plant response rating, Pigweed",pigweed; [7],100
same,Pigweed plant response rating,pigweed; [5],70
same,Ducksalad plant response rating,ducksalad,80
same,Rice plant response rating,rice,70
same,"Sedge, Umbrella plant response rating",[2],90
same,Corn plant response rating (0 to 100 scale),corn; [6],10
same,Corn plant response rating,corn; [4],70
same,"Plant response rating, Corn",corn; [7],60
same,Corn plant response rating,corn; [5],70
same,Blackgrass plant response rating,blackgrass; [4],20
same,Blackgrass plant response rating,blackgrass; [5],30
same,Barnyardgrass plant response rating,barnyardgrass [3],90
same,Surinam Grass plant response rating (0 to 100 scale),Surinam grass; [6],80
same,Surinam Grass plant response rating,Surinam grass; [4],0
same,"Plant response rating, Surinam Grass",Surinam grass; [7],100
same,Surinam Grass plant response rating,Surinam grass; [5],20
CCn1nc(C(C)(C)C)cc1C(=O)Nc1cc(C(=S)N(C)C)ccc1F [Compound 294],"Oat, Wild plant response rating",wild oat; [4],40
same,"Oat, Wild plant response rating",wild oat; [5],50
same,Morningglory plant response rating (0 to 100 scale),morningglory; [6],0
same,Morningglory plant response rating,morningglory; [4],10
same,"Plant response rating, Morningglory",morningglory; [7],20
same,Morningglory plant response rating,morningglory; [5],20
same,Velvetleaf plant response rating,velvetleaf; [4],40
same,"Plant response rating, Velvetleaf",velvetleaf; [7],100
same,Velvetleaf plant response rating,velvetleaf; [5],80
same,Lambsquarters plant response rating (0 to 100 scale),lambsquarters; [6],100
same,Lambsquarters plant response rating,lambsquarters; [4],70
same,"Plant response rating, Lambsquarters",lambsquarters; [7],100
same,Lambsquarters plant response rating,lambsquarters; [5],80
same,Cocklebur plant response rating (0 to 100 scale),cocklebur; [6],90
same,Cocklebur plant response rating,cocklebur; [4],30
same,"Plant response rating, Cocklebur",cocklebur; [7],100
same,Cocklebur plant response rating,cocklebur; [5],30
same,Wheat plant response rating,wheat; [4],30
same,Wheat plant response rating,wheat; [5],40
same,Barnyardgrass plant response rating (0 to 100 scale),barnyardgrass [1]; [6],100
same,Barnyardgrass plant response rating,barnyardgrass [1]; [4],20
same,"Plant response rating, Barnyardgrass",barnyardgrass [1]; [7],100
same,Barnyardgrass plant response rating,barnyardgrass [1]; [5],60
same,"Crabgrass, Large plant response rating (0 to 100 scale)",large crabgrass; [6],100
same,"Crabgrass, Large plant response rating",large crabgrass; [4],10
same,"Plant response rating, Crabgrass, Large",large crabgrass; [7],100
same,"Crabgrass, Large plant response rating",large crabgrass; [5],20
same,Pigweed plant response rating (0 to 100 scale),pigweed; [6],100
same,Pigweed plant response rating,pigweed; [4],30
same,"Plant response rating, Pigweed",pigweed; [7],100
same,Pigweed plant response rating,pigweed; [5],70
same,Ducksalad plant response rating,ducksalad,90
same,Rice plant response rating,rice,90
same,"Sedge, Umbrella plant response rating",[2],80
same,Corn plant response rating (0 to 100 scale),corn; [6],80
same,Corn plant response rating,corn; [4],10
same,"Plant response rating, Corn",corn; [7],100
same,Corn plant response rating,corn; [5],50
same,Blackgrass plant response rating,blackgrass; [4],20
same,Blackgrass plant response rating,blackgrass; [5],60
same,Barnyardgrass plant response rating,barnyardgrass [3],90
same,Surinam Grass plant response rating (0 to 100 scale),Surinam grass; [6],100
same,Surinam Grass plant response rating,Surinam grass; [4],20
same,"Plant response rating, Surinam Grass",Surinam grass; [7],100
same,Surinam Grass plant response rating,Surinam grass; [5],40
CCNC(=O)c1cccc(NC(=O)c2sc(C(C)(C)C)nc2CC)n1 [Compound 213],"Oat, Wild plant response rating",wild oat; [8],10
same,"Oat, Wild plant response rating",wild oat; [9],20
same,Morningglory plant response rating (0 to 100 scale),morningglory; [6],0
same,"Plant response rating, Morningglory",morningglory; [7],20
same,Morningglory plant response rating,morningglory; [8],10
same,Morningglory plant response rating,morningglory; [9],30
same,Velvetleaf plant response rating (0 to 100 scale),velvetleaf; [6],0
same,"Plant response rating, Velvetleaf",velvetleaf; [7],80
same,Velvetleaf plant response rating,velvetleaf; [8],0
same,Velvetleaf plant response rating,velvetleaf; [9],60
same,Lambsquarters plant response rating (0 to 100 scale),lambsquarters; [6],30
same,"Plant response rating, Lambsquarters",lambsquarters; [7],100
same,Lambsquarters plant response rating,lambsquarters; [8],0
same,Lambsquarters plant response rating,lambsquarters; [9],40
same,Cocklebur plant response rating (0 to 100 scale),cocklebur; [6],0
same,"Plant response rating, Cocklebur",cocklebur; [7],0
same,Cocklebur plant response rating,cocklebur; [8],0
same,Cocklebur plant response rating,cocklebur; [9],70
same,Wheat plant response rating,wheat; [8],0
same,Wheat plant response rating,wheat; [9],30
same,Barnyardgrass plant response rating (0 to 100 scale),barnyardgrass [1]; [6],10
same,"Plant response rating, Barnyardgrass",barnyardgrass [1]; [7],80
same,Barnyardgrass plant response rating,barnyardgrass [1]; [8],0
same,Barnyardgrass plant response rating,barnyardgrass [1]; [9],50
same,"Crabgrass, Large plant response rating (0 to 100 scale)",large crabgrass; [6],10
same,"Plant response rating, Crabgrass, Large",large crabgrass; [7],70
same,"Crabgrass, Large plant response rating",large crabgrass; [8],0
same,"Crabgrass, Large plant response rating",large crabgrass; [9],30
same,Pigweed plant response rating (0 to 100 scale),pigweed; [6],30
same,"Plant response rating, Pigweed",pigweed; [7],100
same,Pigweed plant response rating,pigweed; [8],0
same,Pigweed plant response rating,pigweed; [9],20
same,Ducksalad plant response rating,"ducksalad; visual rating, 13 to 15 days",70
same,Rice plant response rating,"rice; visual rating, 13 to 15 days",40
same,"Sedge, Umbrella plant response rating","[2]; visual rating, 13 to 15 days",80
same,Corn plant response rating (0 to 100 scale),corn; [6],0
same,"Plant response rating, Corn",corn; [7],10
same,Corn plant response rating,corn; [8],0
same,Corn plant response rating,corn; [9],20
same,Blackgrass plant response rating,blackgrass; [8],20
same,Blackgrass plant response rating,blackgrass; [9],40
same,Barnyardgrass plant response rating,"barnyardgrass [3]; visual rating, 13 to 15 days",60
same,Surinam Grass plant response rating (0 to 100 scale),Surinam grass; [6],0
same,"Plant response rating, Surinam Grass",Surinam grass; [7],40
same,Surinam Grass plant response rating,Surinam grass; [8],10
same,Surinam Grass plant response rating,Surinam grass; [9],20
